# Experimental data taken from patent US20090176817A1, “Method of Treatment of Diarrhea-Predominant Irritable Bowel Syndrome in a Subject” (priority 2005, published 2009).
# Tested on: diarrhea-predominant IBS subjects
# Experiment: Study S241.3.011: weekly diary questions on adequate relief
# Type: in vivo, human
# Conditions: 2 mg TID, ITT; for Number of subjects who were responders during the three-month treatment period: Adequate relief of IBS symptoms / Number of subjects who were responders during the three-month treatment period: Adequate relief of abdominal pain/discomfort / Number of subjects who were responders during the three-month treatment period: Adequate relief of abnormal bowel habits: observed case
# Procedure: Study S241.3.011 was a Phase III, double-blind, placebo-controlled, randomized, multinational study to investigate the safety and efficacy of 2 mg TID of cilansetron for a period of 12 weeks followed by a rerandomized, placebo-controlled four-week treatment period, in diarrhea-predominant IBS subjects. The study was conducted in six countries including the US. A total of 2115 subjects consented to participate, and 770 subjects were randomized. A total of 746 subjects were analyzed for efficacy and 755 subjects were analyzed for safety. Diagnosis and main criteria for inclusion were IBS subjects satisfying the Rome I criteria (1992); the diarrhea predominant sub-population of the Rome II criteria; and a minimum abdominal pain/discomfort, stool frequency and consistency determined during the run-in period. Subjects were treated with cilansetron 2 mg tablets given orally TID or matching placebo tablets given orally TID for 12 weeks followed by a rerandomized, placebo-controlled four-week treatment period.
# The primary efficacy parameter was the number of months that a subject was a responder for IBS symptoms (abdominal pain, abdominal discomfort, abnormal bowel habits) over the 12-week treatment period. A responder for a month (monthly responder) was defined as a subject who answered the weekly question with “yes” at least twice for that month. The two main secondary efficacy parameters were the monthly responder rates based on the “adequate relief” questions regarding abdominal pain/discomfort and abnormal bowel habits during the 12-week treatment period. The overall response rate and responder rate for the weekly diary questions on adequate relief at each month and all months, the adequate relief rate, the number of subjects with adequate relief by week, daily diary questions, IBS-QOL scores, and the interruption of activities were also assessed. Safety was evaluated by physical examination, ECG, vital signs, laboratory evaluations, concomitant medications, and AEs.
# Subjects who were initially randomized to the cilansetron 2 mg TID group and rerandomized to placebo, will be referred to as the C/P treatment group; subjects initially randomized to the placebo group and rerandomized to placebo will be referred to as the P/P treatment group; the P/C and C/C treatment group nomenclature follow the same principle. Of the 591 subjects who completed the three-month treatment period, 576 subjects were rerandomized and thus divided into the following treatment groups: 150 subjects in the C/C treatment group, 140 subjects in the C/P treatment group, 136 subjects in the P/C treatment group, and 150 subjects in the P/P treatment group. Of the 576 subjects rerandomized, a higher percentage of subjects in the C/C treatment group (99%) completed the study compared with the C/P (95%), P/C (93%), and the P/P (95%) treatment groups.
# Studies S24 1.3.OO6, S24 1.3.0 1 1, and S24 1.3.009 used the following efficacy measurements: • The subjects answered the following three questions with “yes” or “no” using a phone diary at the end of each week: • a) During the last week, did you experience adequate relief of your IBS symptoms, such as abdominal pain, abdominal discomfort, abnormal bowel habits? • b) During the last week, did you experience adequate relief of your abdominal pain and/or discomfort? • c) During the last week, did you experience adequate relief of your abnormal bowel habits? • The subjects rated the following symptoms using the phone diary at the end of each day: • abdominal pain/discomfort (five-point scale); • stool consistency (seven-point Bristol Stool Scale); • stool frequency (number of bowel movements each day); • urgency (five-point scale); • straining (yes or no); • feeling of incomplete defecation (yes or no); • bloating or feeling of abdominal distension (five-point scale). • In Studies S241 A006 and S241.3.009, subjects completed the IBS-QOL Survey at Baseline (Day 1) and at the end of treatment. […]
# [1] = Duration of IBS: >24 months to ≦48 months, monthly LOCF imputation
# [2] = Duration of IBS: >24 months to ≦48 months
# [3] = Duration of IBS: >48 months to ≦120 months, monthly LOCF imputation
# [4] = Duration of IBS: >48 months to ≦120 months
# [5] = Duration of IBS: >120 months, monthly LOCF imputation
# [6] = Duration of IBS: ≦24 months, monthly LOCF imputation
# [7] = Female subjects, three-month treatment period, monthly LOCF
smiles,measurement,setting,value
"Cc1nccn1C[C@H]1CCc2c(c3cccc4c3n2CCC4)C1=O [Cilansetron, (R)-(−)-4,5,6,8,9,10-hexahydro-10-[(2-methyl-1H-imidazol-1-yl)methyl]-11H-pyrido-[3,2,1-jk]-carbazol-11-one]","Number of months a subject was a responder during the three-month treatment period: Abnormal bowel habits, Two months",[1],10 (14) n (%)
same,"Number of months a subject was a responder during the three-month treatment period: Abnormal bowel habits, Zero months",[1],20 (28) n (%)
same,"Number of months a subject was a responder during the three-month treatment period: IBS symptoms, One month",[1],7 (10) n (%)
same,"Number of months a subject was a responder during the three-month treatment period: IBS symptoms, Three months",[1],32 (44) n (%)
same,"Number of months a subject was a responder during the three-month treatment period: IBS symptoms, Two months",[1],16 (22) n (%)
same,"Number of months a subject was a responder during the three-month treatment period: IBS symptoms, Zero months",[1],17 (24) n (%)
same,Number of subjects who were responders during the three-month treatment period: Adequate relief of IBS symptoms,[2],44 (61) n (%)
same,Number of subjects who were responders during the three-month treatment period: Adequate relief of abdominal pain/discomfort,[2],44 (61) n (%)
same,Number of subjects who were responders during the three-month treatment period: Adequate relief of abnormal bowel habits,[2],43 (60) n (%)
same,"Number of months a subject was a responder during the three-month treatment period: Abdominal pain/discomfort, One month",[3],15 (11) n (%)
same,"Number of months a subject was a responder during the three-month treatment period: Abdominal pain/discomfort, Three months",[3],61 (46) n (%)
same,"Number of months a subject was a responder during the three-month treatment period: Abdominal pain/discomfort, Two months",[3],23 (17) n (%)
same,"Number of months a subject was a responder during the three-month treatment period: Abdominal pain/discomfort, Zero months",[3],34 (26) n (%)
same,"Number of months a subject was a responder during the three-month treatment period: Abnormal bowel habits, One month",[3],15 (11) n (%)
same,"Number of months a subject was a responder during the three-month treatment period: Abnormal bowel habits, Three months",[3],50 (38) n (%)
same,"Number of months a subject was a responder during the three-month treatment period: Abnormal bowel habits, Two months",[3],29 (22) n (%)
same,"Number of months a subject was a responder during the three-month treatment period: Abnormal bowel habits, Zero months",[3],39 (29) n (%)
same,"Number of months a subject was a responder during the three-month treatment period: IBS symptoms, One month",[3],19 (14) n (%)
same,"Number of months a subject was a responder during the three-month treatment period: IBS symptoms, Three months",[3],50 (38) n (%)
same,"Number of months a subject was a responder during the three-month treatment period: IBS symptoms, Two months",[3],26 (20) n (%)
same,"Number of months a subject was a responder during the three-month treatment period: IBS symptoms, Zero months",[3],38 (29) n (%)
same,Number of subjects who were responders during the three-month treatment period: Adequate relief of IBS symptoms,[4],69 (52) n (%)
same,Number of subjects who were responders during the three-month treatment period: Adequate relief of abdominal pain/discomfort,[4],79 (59) n (%)
same,Number of subjects who were responders during the three-month treatment period: Adequate relief of abnormal bowel habits,[4],69 (52) n (%)
same,"Number of months a subject was a responder during the three-month treatment period: Abdominal paint/discomfort, One month",[5],13 (13) n (%)
same,"Number of months a subject was a responder during the three-month treatment period: Abdominal paint/discomfort, Three months",[5],39 (38) n (%)
same,"Number of months a subject was a responder during the three-month treatment period: Abdominal paint/discomfort, Two months",[5],18 (18) n (%)
same,"Number of months a subject was a responder during the three-month treatment period: Abdominal paint/discomfort, Zero months",[5],32 (31) n (%)
same,"Number of months a subject was a responder during the three-month treatment period: Abnormal bowel habits, One month",[5],17 (17) n (%)
same,"Number of months a subject was a responder during the three-month treatment period: Abnormal bowel habits, Three months",[5],37 (36) n (%)
same,"Number of months a subject was a responder during the three-month treatment period: Abnormal bowel habits, Two months",[5],12 (12) n (%)
same,"Number of months a subject was a responder during the three-month treatment period: Abnormal bowel habits, Zero months",[5],36 (35) n (%)
same,"Number of months a subject was a responder during the three-month treatment period: IBS symptoms, One month",[5],17 (17) n (%)
same,"Number of months a subject was a responder during the three-month treatment period: IBS symptoms, Three months",[5],38 (37) n (%)
same,"Number of months a subject was a responder during the three-month treatment period: IBS symptoms, Two months",[5],12 (12) n (%)
same,"Number of months a subject was a responder during the three-month treatment period: IBS symptoms, Zero months",[5],35 (34) n (%)
same,Number of subjects who were responders during the three-month treatment period: Adequate relief of IBS symptoms,Duration of IBS: >120 months,48 (47) n (%)
same,Number of subjects who were responders during the three-month treatment period: Adequate relief of abdominal pain/discomfort,Duration of IBS: >120 months,55 (54) n (%)
same,Number of subjects who were responders during the three-month treatment period: Adequate relief of abnormal bowel habits,Duration of IBS: >120 months,46 (45) n (%)
same,"Number of months a subject was a responder during the three-month treatment period: Abdominal pain/discomfort, One month",[6],7 (10) n (%)
same,"Number of months a subject was a responder during the three-month treatment period: Abdominal pain/discomfort, Three months",[6],27 (39) n (%)
same,"Number of months a subject was a responder during the three-month treatment period: Abdominal pain/discomfort, Two months",[6],16 (23) n (%)
same,"Number of months a subject was a responder during the three-month treatment period: Abdominal pain/discomfort, Zero months",[6],20 (29) n (%)
same,"Number of months a subject was a responder during the three-month treatment period: Abnormal bowel habits, One month",[6],8 (11) n (%)
same,"Number of months a subject was a responder during the three-month treatment period: Abnormal bowel habits, Three months",[6],30 (43) n (%)
same,"Number of months a subject was a responder during the three-month treatment period: Abnormal bowel habits, Two months",[6],15 (21) n (%)
same,"Number of months a subject was a responder during the three-month treatment period: Abnormal bowel habits, Zero months",[6],17 (24) n (%)
same,"Number of months a subject was a responder during the three-month treatment period: IBS symptoms, One month",[6],11 (16) n (%)
same,"Number of months a subject was a responder during the three-month treatment period: IBS symptoms, Three months",[6],28 (40) n (%)
same,"Number of months a subject was a responder during the three-month treatment period: IBS symptoms, Two months",[6],16 (23) n (%)
same,"Number of months a subject was a responder during the three-month treatment period: IBS symptoms, Zero months",[6],15 (21) n (%)
same,Number of subjects who were responders during the three-month treatment period: Adequate relief of IBS symptoms,Duration of IBS: ≦24 months,45 (64) n (%)
same,Number of subjects who were responders during the three-month treatment period: Adequate relief of abdominal pain/discomfort,Duration of IBS: ≦24 months,43 (61) n (%)
same,Number of subjects who were responders during the three-month treatment period: Adequate relief of abnormal bowel habits,Duration of IBS: ≦24 months,45 (64) n (%)
same,Number of months a subject was a responder: One month (Abdominal pain/discomfort),[7],30 (11) n (%)
same,Number of months a subject was a responder: One month (Abnormal bowel habits),[7],34 (13) n (%)
same,Number of months a subject was a responder: One month (IBS symptoms),[7],35 (13) n (%)
same,Number of months a subject was a responder: Three months (Abdominal pain/discomfort),[7],101 (39) n (%)
